Data taken from ChEMBL document CHEMBL1914387, “Combining symmetry elements results in potent naphthyridinone (NTD) HIV-1 integrase inhibitors” (Bioorg Med Chem Lett, 2011).

Assays:
[1] = tested on: Human immunodeficiency virus 1; assay: Antiviral activity against pseudo HIV1 infected in human 293T cells after 2 days by luciferase reporter gene assay in presence of human serum albumin; format: functional, organism-based; settings: Human immunodeficiency virus 1, HEK-293T, 48 h
[2] = Therapeutic index, ratio of CC50 for human 293T cells to EC50 for HIV1; format: cell-based; settings: read-out: Ratio CC50/EC50
[3] = tested on: Human immunodeficiency virus 1; assay: Ratio of EC50 for pseudo HIV1 infected in human 293T cells in presence of human serum albumin to EC50 for pseudo HIV1 infected in human 293T cells; format: functional
[4] = tested on: Human immunodeficiency virus 1; assay: Antiviral activity against pseudo HIV1 infected in human 293T cells after 2 days by luciferase reporter gene assay; format: functional, organism-based; settings: Human immunodeficiency virus 1, HEK-293T, 48 h
[5] = biological target: Human immunodeficiency virus type 1 integrase (Human immunodeficiency virus 1, UniProt Q7ZJM1); assay: Inhibition of HIV1 integrase strand transfer by biochemical assay
[6] = Selectivity index, ratio of CC50 for human MT4 cells to EC50 for HIV13B; format: toxicity, cell-based; settings: read-out: Ratio CC50/EC50
[7] = tested on: Human immunodeficiency virus 1; assay: Antiviral activity against HIV1 3B infected in human MT4 cells assessed as inhibition of viral replication after 4-5 days by bioluminescence assay; format: functional, organism-based; settings: Human immunodeficiency virus 1, 3B
[8] = tested on: Human immunodeficiency virus 1; assay: Antiviral activity against HIV1 Ba-L infected in human PBMC cells assessed as inhibition of viral replication after 7 days by [methyl-3H]dTTP incorporation assay; format: functional, organism-based; settings: Human immunodeficiency virus 1, Ba-L, 168 h

Sequence of Human immunodeficiency virus type 1 integrase (Q7ZJM1 whole entry): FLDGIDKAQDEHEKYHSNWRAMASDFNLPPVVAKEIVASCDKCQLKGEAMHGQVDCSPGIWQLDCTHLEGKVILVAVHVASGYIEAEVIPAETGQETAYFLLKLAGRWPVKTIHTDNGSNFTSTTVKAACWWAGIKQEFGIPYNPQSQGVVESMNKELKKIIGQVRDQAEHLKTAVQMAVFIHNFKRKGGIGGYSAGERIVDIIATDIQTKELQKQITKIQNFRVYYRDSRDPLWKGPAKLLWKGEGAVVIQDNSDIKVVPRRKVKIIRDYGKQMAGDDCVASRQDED

Question: For CN(C)C(=O)Cn1c(=O)c(C(=O)NCc2ccc(F)cc2)c(O)c2ncc(Cc3ccc(F)cc3)cc21, which EC50 [1] is on record?
Answer: 130 nM

Question: What about the selectivity ratio [2] of the same compound?
Answer: 1150

Question: What about the “Ratio EC50” value [3] of the same compound?
Answer: 10

Question: What about the EC50 [4] of the same compound?
Answer: 10 nM

Question: What about the IC50 [5] of the same compound?
Answer: 4 nM

Question: What does the source list for O=C(NCc1ccc(F)cc1C(F)(F)F)c1c(O)c2ncc(Cc3ccccc3)cc2[nH]c1=O?
Answer: EC50 [1]: 480 nM; selectivity ratio [2]: 90; EC50 [4]: 39 nM; IC50 [5]: 32 nM

Question: For COc1ccc(CNC(=O)c2c(O)c3ncc(Cc4ccc(F)cc4)cc3[nH]c2=O)cc1, which EC50 [1] is on record?
Answer: 440 nM

Question: And the selectivity ratio [2]?
Answer: 1730

Question: What about the EC50 [4] of the same compound?
Answer: 7 nM

Question: And the IC50 [5]?
Answer: 7 nM

Question: With COc1cccc(CNC(=O)c2c(O)c3ncc(Cc4ccc(F)cc4)cc3[nH]c2=O)c1 as the compound, how does the EC50 [1] read?
Answer: 460 nM

Question: What about the selectivity ratio [2] of the same compound?
Answer: 1050

Question: What about the EC50 [4] of the same compound?
Answer: 13 nM

Question: What about the IC50 [5] of the same compound?
Answer: 10 nM

Question: What does the source list for COc1ccccc1CNC(=O)c1c(O)c2ncc(Cc3ccc(F)cc3)cc2[nH]c1=O?
Answer: EC50 [1]: 330 nM; selectivity ratio [2]: 1540; EC50 [4]: 9 nM; IC50 [5]: 6 nM

Question: For COc1ccc(CNC(=O)c2c(O)c3ncc(Cc4ccc(F)cc4)cc3[nH]c2=O)cc1OC, which EC50 [1] is on record?
Answer: 1100 nM

Question: And the selectivity ratio [2]?
Answer: 680

Question: And the EC50 [4]?
Answer: 21 nM

Question: What about the IC50 [5] of the same compound?
Answer: 8 nM

Question: With CC(NC(=O)c1c(O)c2ncc(Cc3ccccc3)cc2[nH]c1=O)c1ccccc1 (centres undefined) as the compound, how does the EC50 [1] read?
Answer: 360 nM

Question: What about the selectivity ratio [2] of the same compound?
Answer: 79

Question: And the EC50 [4]?
Answer: 65 nM

Question: What about the IC50 [5] of the same compound?
Answer: 20 nM

Question: Which EC50 [1] does the source give for Cn1c(=O)c(C(=O)NCc2ccc(F)cc2)c(O)c2ncc(Cc3ccc(F)cc3)cc21 here?
Answer: 530 nM

Question: And the selectivity ratio [2]?
Answer: 1710

Question: What about the selectivity ratio [6] of the same compound?
Answer: 453

Question: And the EC50 [4]?
Answer: 8 nM

Question: And the EC50 [7]?
Answer: 66 nM

Question: What about the IC50 [5] of the same compound?
Answer: 17 nM

Question: For CCCn1c(=O)c(C(=O)NCc2ccc(F)cc2)c(O)c2ncc(Cc3ccccc3)cc21, which EC50 [1] is on record?
Answer: 640 nM

Question: And the selectivity ratio [2]?
Answer: 99

Question: What about the EC50 [4] of the same compound?
Answer: 70 nM

Question: And the IC50 [5]?
Answer: 18 nM

Question: Which EC50 [1] does the source give for O=C(NCc1ccc(F)cc1)c1c(O)c2ncc(Cc3ccccc3)cc2n(CC2CC2)c1=O here?
Answer: 730 nM

Question: What about the selectivity ratio [2] of the same compound?
Answer: 465

Question: And the EC50 [4]?
Answer: 30 nM

Question: And the IC50 [5]?
Answer: 34 nM

Question: For Nc1ccc(Cn2c(=O)c(C(=O)NCc3ccc(F)cc3)c(O)c3ncc(Cc4ccccc4)cc32)cc1, which EC50 [1] is on record?
Answer: 140 nM

Question: What about the selectivity ratio [2] of the same compound?
Answer: 1130

Question: What about the “Ratio EC50” value [3] of the same compound?
Answer: 12

Question: And the EC50 [4]?
Answer: 12 nM

Question: And the IC50 [5]?
Answer: 28 nM

Question: Which results are given for CS(=O)(=O)c1ccc(Cn2c(=O)c(C(=O)NCc3ccc(F)cc3)c(O)c3ncc(Cc4ccccc4)cc32)cc1?
Answer: EC50 [1]: 230 nM; selectivity ratio [2]: 1430; Ratio EC50 [3]: 25; EC50 [4]: 9 nM; IC50 [5]: 28 nM

Question: With O=C(NCc1ccc(F)cc1)c1c(O)c2ncc(Cc3ccccc3)cc2n(CCN2CCCC2=O)c1=O as the compound, how does the EC50 [1] read?
Answer: 290 nM

Question: And the selectivity ratio [2]?
Answer: 1770

Question: And the EC50 [4]?
Answer: 8 nM

Question: What about the IC50 [5] of the same compound?
Answer: 32 nM

Question: With O=C(NCc1ccc(F)cc1)c1c(O)c2ncc(Cc3ccc(F)cc3)cc2n(CCN2CCCC2=O)c1=O as the compound, how does the EC50 [1] read?
Answer: 140 nM

Question: What about the selectivity ratio [2] of the same compound?
Answer: 5600

Question: What about the EC50 [8] of the same compound?
Answer: 11 nM

Question: And the selectivity ratio [6]?
Answer: > 400

Question: What about the EC50 [4] of the same compound?
Answer: 3 nM

Question: And the EC50 [7]?
Answer: 20 nM

Question: What about the IC50 [5] of the same compound?
Answer: 14 nM

Question: For O=C(NCc1ccc(F)cc1)c1c(O)c2ncc(Cc3ccc(F)cc3)cc2n(CC(=O)N2CCCCC2)c1=O, which EC50 [1] is on record?
Answer: 220 nM

Question: And the selectivity ratio [2]?
Answer: 171

Question: And the “Ratio EC50” value [3]?
Answer: 10

Question: What about the EC50 [4] of the same compound?
Answer: 26 nM

Question: What about the IC50 [5] of the same compound?
Answer: 19 nM

Question: Which EC50 [1] does the source give for O=C(NCc1ccc(F)cc1)c1c(O)c2ncc(Cc3ccc(F)cc3)cc2n(CC(=O)N2CCOCC2)c1=O here?
Answer: 45 nM

Question: And the selectivity ratio [2]?
Answer: 2880

Question: And the selectivity ratio [6]?
Answer: 347

Question: And the EC50 [4]?
Answer: 3 nM

Question: What about the EC50 [7] of the same compound?
Answer: 15 nM

Question: What about the IC50 [5] of the same compound?
Answer: 8 nM

Question: Which selectivity ratio [2] does the source give for O=C(NCc1ccc(F)cc1)c1c(O)c2ncccc2[nH]c1=O here?
Answer: 87

Question: And the EC50 [4]?
Answer: 110 nM

Question: What about the IC50 [5] of the same compound?
Answer: 13 nM

Question: For CC(C)n1c(=O)c(C(=O)NCc2ccc(F)cc2)c(O)c2ncccc21, which selectivity ratio [2] is on record?
Answer: 30

Question: What about the EC50 [4] of the same compound?
Answer: 400 nM

Question: And the IC50 [5]?
Answer: 1 nM

Question: For O=C(NCc1ccc(F)cc1)c1c(O)c2ncccc2n(C2CCCC2)c1=O, which EC50 [1] is on record?
Answer: 1540 nM

Question: And the selectivity ratio [2]?
Answer: 79

Question: What about the “Ratio EC50” value [3] of the same compound?
Answer: 14

Question: And the EC50 [4]?
Answer: 110 nM

Question: What about the IC50 [5] of the same compound?
Answer: 6 nM

Question: What does the source list for O=C(NCc1ccc(F)cc1)c1c(O)c2ncc(Cc3ccccc3)cc2[nH]c1=O?
Answer: EC50 [1]: 430 nM; selectivity ratio [2]: 711; selectivity ratio [6]: 108; EC50 [4]: 19 nM; EC50 [7]: 37 nM; IC50 [5]: 13 nM

Question: With O=C(NCc1ccc(F)cc1)c1c(O)c2ncc(Cc3ccc(F)cc3)cc2[nH]c1=O as the compound, how does the EC50 [1] read?
Answer: 280 nM

Question: What about the selectivity ratio [2] of the same compound?
Answer: 1730

Question: And the EC50 [4]?
Answer: 8 nM

Question: What about the IC50 [5] of the same compound?
Answer: 6 nM

Question: With O=C(NCc1ccc(F)cc1Cl)c1c(O)c2ncc(Cc3ccccc3)cc2[nH]c1=O as the compound, how does the selectivity ratio [2] read?
Answer: 117

Question: What about the EC50 [4] of the same compound?
Answer: 120 nM

Question: And the IC50 [5]?
Answer: 35 nM
